Reference: a melting point compilation (Tetko et al.; mined from patent text by program, amines drawn as free bases though some values may be those of a salt)
Residues, ends and D or L forms follow the SMILES beside them. *: point of attachment. PhAc = O=C(Cc1ccccc1)*; NHNH2 = NN*

Work on `C#CC(O)(c1ccccc1)c1ccc([N+](=O)[O-])cc1` (stereo unspecified) yielded a melting point of 88 to 89 °C.
With `Cc1nc(N)c(C#N)c(-c2ccco2)n1` the melting point was 317 to 320 °C.
`COc1ccc([C@@H]2C[C@H]2CNC(=O)N(C)O)cc1` (relative stereo) showed a melting point of 112 °C.
`CCOC(=O)Cc1c(C)nn(-c2ccccc2)c1C` showed a melting point of 86 to 87 °C.
Work on `COC(=O)C#CC(=O)c1cc(OC)ccc1OC` yielded a melting point of 70 to 71 °C.
`COCc1c(C=NO)nc(Oc2nccc3ccccc23)c2[nH]c3ccccc3c12` showed a melting point of 107 to 112 °C.
Work on `COc1ccccc1-c1nc(C)c(-c2cccnc2)n1O` yielded a melting point of 105 to 120 °C.
For `CCCCNC(=O)c1ccc(Cl)c(-n2nc(CCCC)n(Cc3ccc(-c4ccccc4S(=O)(=O)NC(=O)c4ccccc4Cl)cc3F)c2=O)c1`, the melting point was 218 to 220 °C.
`CCCNC(=O)[C@H](C)C[C@H](O)[C@H](CC1CCCCC1)NC(=O)[C@H](Cc1cscn1)NC(=O)[C@@H](CC(=O)N(C)Cc1ccccc1)Cc1ccccc1` showed a melting point of 115 to 118 °C.
For `N#CCCNC(=O)c1cccc(-c2ccc3ccn(Cc4ccc(Cl)cc4Cl)c3n2)c1`, the melting point was 186 to 187 °C.
For `Cc1cc(C=O)ccc1C(=O)Nc1ncc(Cl)cn1`, the melting point was 169 to 172 °C.
Work on `O=C1c2ccccc2C(c2c(O)c3ccccc3oc2=O)N1c1ccccc1` (stereo unspecified) yielded a melting point of 335 to 337 °C.
`CC(c1ccc(F)cc1)N1CCN(c2cc(Oc3cccc4ccncc34)ncn2)CC1` (stereo unspecified) showed a melting point of 114 °C.
With `C=Cc1ccc2c(c1CCC(=O)OC)CCC(NS(=O)(=O)c1ccc(Cl)cc1)C2` (stereo unspecified) the melting point was 138 °C.
Molecule `OCc1cccc2cccnc12` has a melting point of 74 to 75 °C.
`CSC1=NC(=O)C(=C(C)c2cc(C(C)(C)C)c(O)c(C(C)(C)C)c2)S1` gave a melting point of 206 to 209 °C.
Work on `Cn1c(=O)c2c(c3ccccc31)c1cc(Cl)ccc1n2CCN` yielded a melting point of 222 to 224 °C.
In the case of `CSc1nnc(C2C(=O)N(C(N)=O)c3ccc(Cl)cc32)o1` (stereo unspecified), the melting point is reported as 297 to 299 °C.
`BrCc1ccc2ccccc2c1CBr` gave a melting point of 149 to 150 °C.
In the case of `O=C(c1cc(NS(=O)(=O)c2ccccc2)ccn1)N(O)Cc1ccccc1`, the melting point is reported as 175 to 180 °C.
With `CCOc1cc(Br)ccc1C=NNC(=N)NN=Cc1ccc(Br)cc1OCC` the melting point was 195 to 197 °C.
`CNC(=O)Oc1ccc(N=Cc2ccccc2O)c2ccccc12` showed a melting point of 143 to 146 °C.
`CCCOC(=O)c1cn(CC)c2nc(N3CCNCC3)c(F)cc2c1=O` gave a melting point of 133 to 135 °C.
`Cc1[nH]c(=O)c(C#N)cc1C(=O)CBr` gave a melting point of 212 to 214 °C.
In the case of `Cc1nc2cc3c(cc2nc1C(=O)OC(C)(C)C)OC(C)(C)O3`, the melting point is reported as 104 to 105 °C.
With `O=C(OCc1ccccc1)N1CCC(NCC(O)Cn2ccnc2[N+](=O)[O-])C(O)C1` (stereo unspecified) the melting point was 140 to 142 °C.
Work on `CCCc1nc(CC)c(C(=O)O)n1Cc1ccc(C2(C(=O)O)CC=CC2)s1` yielded a melting point of 157 to 161 °C.
Work on `O=C(O)c1cccc(-c2ccc3c(c2)C(c2ccc(Cl)cc2Cl)CO3)c1` (stereo unspecified) yielded a melting point of 192 to 193 °C.
Work on `COc1cc2c(=O)n(Cc3ccc([N+](=O)[O-])cc3)c3cc(OC)c(OC)cc3c2cc1OC` yielded a melting point of 199 to 200 °C.
In the case of `Clc1ccc2nc(-c3cccs3)c(-c3ccncc3)n2n1`, the melting point is reported as 208 to 210 °C.
Work on `O=S(=O)(c1scc(Br)c1Br)n1nnc2c(Br)cc(C(F)(F)F)cc21` yielded a melting point of 192 to 195 °C.
`COc1c(Cl)cc(NC(C)=O)c(OC)c1N` gave a melting point of 113 °C.
`CCOC(=O)Cc1c(C(=O)O)c(Br)c(C(=O)c2ccc(C)cc2)n1C` gave a melting point of 183 to 185 °C.
Work on `N#CC=C(c1ccc(-c2ccccc2)cc1)c1ccc(-c2ccccc2)cc1` yielded a melting point of 154 °C.
`CC1=C(C(=O)c2ccc(C(F)(F)F)cc2)C(=O)C2C=CC=CC2C1=O` (stereo unspecified) gave a melting point of 155 to 156 °C.
Work on `CN(C)C1(Cc2ccccc2)CCC(=O)CC1` yielded a melting point of 80 to 84 °C.
Molecule `COC(=O)c1nc(-c2ccc(Cl)c(OC)c2F)nc(N)c1C(C)F` (stereo unspecified) has a melting point of 150 to 152 °C.
With `O=c1[nH]cnc2ccc(S(=O)(=O)Cl)cc12` the melting point was over 400 °C.
Work on `COC(=O)C(C#N)CC(=S)c1ccc(C)cc1` (stereo unspecified) yielded a melting point of 88 to 90 °C.
`Oc1cccc(-c2nc(COc3ccc(CCCn4ccnc4)cc3)co2)c1` showed a melting point of 164 to 165 °C.
`CC12CC(F)C3c4ccc(O)cc4CC(CCCCCN4CCCC4CSCCCC(F)(F)C(F)(F)F)C3C1CCC2O` (stereo unspecified) gave a melting point of 174 to 176 °C.
In the case of `COc1ccc(CCN(C)CCC2CN(C)C(=S)c3cccnc3O2)cc1` (stereo unspecified), the melting point is reported as 75 to 78 °C.
In the case of `CNC(=O)c1cccc(NC(=O)Cc2c(C)ccc3ccccc23)c1`, the melting point is reported as 230 to 231 °C.
In the case of `Cn1c([N+](=O)[O-])cnc1C=Cc1cccc(C(N)=O)c1`, the melting point is reported as 254 to 256 °C.
In the case of `NS(=O)(=O)c1cc(C(=O)O)cc(NCc2ccco2)c1-c1ccccc1`, the melting point is reported as 167 to 169 °C.
`COC(=O)c1ccccc1C1=NC(C)(C(C)C)C(=O)N1Sc1ccccc1[N+](=O)[O-]` (stereo unspecified) showed a melting point of 143 to 148 °C.
`CC(C)(C)c1ccc(Cn2cc(C(=O)C(=O)O)c3ccc(-c4ccc(OC(F)(F)F)cc4)cc32)cc1` showed a melting point of 183 to 186 °C.
With `COc1cc(C(=O)Nc2ccc(N3CCOCC3)cc2C(C)=O)ccc1OCc1ccccc1` the melting point was 192 to 194 °C.
Molecule `OCC1Cc2ccccc2OC1CO` (stereo unspecified) has a melting point of 82 to 85 °C.
In the case of `CCOC(=O)c1cn(-c2ccccn2)nc1C`, the melting point is reported as 79 to 80 °C.
In the case of `O=c1cc(C2CCCC2)oc2ccc(OCCCCCCCl)cc12`, the melting point is reported as 125 to 126 °C.
In the case of `CC(NC(=O)C1CCCN1C(=O)Cc1ccccc1)C(=O)NN` (stereo not drawn) (PhAc-Pro-Ala-NHNH2; configuration not given here), the melting point is reported as 142 to 143 °C.
`O=[N+]([O-])c1[nH]c(-c2c(Cl)cc(C(F)(F)F)cc2Cl)nc1C(F)(F)F` gave a melting point of 244 to 252 °C.
`CC(O)(c1nc2cc(S(=O)(=O)c3ccccc3)ccc2s1)C(F)(F)F` (stereo unspecified) gave a melting point of 126 to 128 °C.
In the case of `O=C(Nc1nnn[nH]1)c1cc(Cl)ccc1[N+](=O)[O-]`, the melting point is reported as 268 to 269 °C.
Work on `COc1cc2c(c(OC)c1OC)C(=O)O[C@H]2CO` yielded a melting point of 178 to 180 °C.
`Cc1cccc(-c2nc(NCc3ccc(Cl)cc3)c3ccccc3n2)n1` gave a melting point of 210 to 212 °C.
With `CNC(=O)c1cccc(Cl)c1Nc1nc(Nc2ccc3c(c2)CCCC(=O)N3C)ncc1Cl` the melting point was 145 to 160 °C.
In the case of `COc1ccc(C2=NN(CC(=O)Nc3cccc(-c4nnc(=O)sc4C)c3)C(=O)[C@H]3CC=CC[C@@H]23)cc1OC` (relative stereo), the melting point is reported as 157 to 161 °C.
Work on `C#CCNC(=NCCSCc1ccc(CN(C)C)o1)NC#N` yielded a melting point of 122 to 124 °C.
With `CCc1[nH]c(=O)[nH]c1C(=O)C(C)C` the melting point was 206 to 208 °C.
In the case of `C=C1C(O)C(CO)OC1n1ccc(NC(=O)c2ccccc2)nc1=O` (stereo unspecified), the melting point is reported as over 300 °C.
With `Nc1c(I)c(C(=O)NCC(O)CO)c(I)c(C(=O)NCC(O)CO)c1I` (single isomer, unassigned; (-)) the melting point was 203 °C.
With `COc1ccc(NC(=O)NC/C=C2\CCCc3ccc(OC)cc32)cc1` the melting point was 168 to 170 °C.
With `c1ccc(-c2ccc(C3CN4CCC3CC4)cc2)cc1` (single isomer, unassigned; (+)) the melting point was 85 to 86 °C.
In the case of `CCCN=C(NC#N)NCCSCc1[nH]cnc1C`, the melting point is reported as 108 to 110 °C.
In the case of `CN1CCCC1=NC(=O)Nc1cccc2ccccc12`, the melting point is reported as 148 to 149 °C.
For `Nc1cc(C(O)=S)cc(Cc2ccccc2)c1C(=O)c1ccccc1`, the melting point was 141 to 142 °C.
`Nc1c(Cl)cc(C(=CC(=O)N2CCOCC2)c2ccc(Cl)cc2)cc1Cl` gave a melting point of 140 to 144 °C.
Work on `CCCOc1cccc(C2(c3ccncc3)N=C(N)N(C)C2=O)c1` (stereo unspecified) yielded a melting point of 173 to 175 °C.
`CCCNC(=S)Nc1nc2ccc(OC(F)(F)F)cc2s1` showed a melting point of 226 to 228 °C.
`CC(=O)OC1CCC2(C)C(CCC3=C4C(=O)CC(C(C)CCCN(C)C)C4(C)CCC32)C1` (stereo unspecified) gave a melting point of 122 to 124 °C.
Molecule `COc1ccc(N/C=C2\C(=O)NC(=O)c3ccccc32)cc1` has a melting point of 150 to 151 °C.
In the case of `CC(=CC(=O)O)c1ccc2[nH]cc(-c3cc(C(C)(C)C)cc(C(C)(C)C)c3OCC(F)F)c2c1`, the melting point is reported as 135 to 145 °C.
`COC(=O)CCSCc1ccc2oc(-c3ccc4ccc(Cl)cc4n3)cc2c1` gave a melting point of 96 to 103 °C.
Molecule `COc1cc2ncnc(N3CCC(O)(CCN4C=CC(C)=NS4(=O)=O)CC3)c2cc1OC` has a melting point of 203 to 204 °C.
Molecule `CCOC(=O)CN1CCC(=C2c3ccc(Cl)cc3CCc3cccnc32)CC1` has a melting point of 80 to 82 °C.
With `CN1CC2CN(C)CC(C1)C2OCc1ccccc1` (stereo unspecified) the melting point was 70 to 75 °C.
`O=C(c1cc(-c2cccnc2)c(N2CCOCC2)s1)c1ccc(Cl)cc1Cl` gave a melting point of 176 °C.
Molecule `CC(C)Cn1c(CON2C(=O)c3ccccc3C2=O)nc2c(N)nc3ccccc3c21` has a melting point of 221 to 222 °C.
In the case of `CCCCCCCCCCOc1ccc(C(=NO)c2cccc(C(=O)O)c2)cc1CCC(=O)O`, the melting point is reported as 163 to 165 °C.
Molecule `O=C(O)/C=C/c1ccc(Oc2c(-c3ccccc3)c(C(F)(F)F)cc3ccccc23)cc1` has a melting point of 210 to 211 °C.
With `COC(=O)CC(C)C(=O)c1ccc2c(c1)OCC(=O)N2` (stereo unspecified) the melting point was 95 to 98 °C.
Molecule `O=C1OCCCC1=Cc1ccccc1OCC(O)CN1CCC(c2ccc3ccccc3c2)CC1` (stereo unspecified) has a melting point of 142 to 144 °C.
In the case of `O=[N+]([O-])c1cc(CO)cc([N+](=O)[O-])c1-c1ccc(O)cc1`, the melting point is reported as 156 to 158 °C.
`CC1(C)Cc2c(sc(N)c2C(N)=O)C(C)(C)C1` showed a melting point of 140 to 145 °C.
`CCCCc1c(C(=O)c2ccc(OCCCN(CCCC)CCCC)cc2)[nH]c2ccc([N+](=O)[O-])cc12` gave a melting point of 80 °C.
In the case of `O=C(Nc1c(Br)cc(Br)cc1C(=O)NCC1CCCCC1)N[C@@H](Cc1ccc(NC(=O)c2c(Cl)cccc2Cl)cc1)C(=O)O`, the melting point is reported as 193 °C.
In the case of `CC(C)(C)OC(=O)N1CCc2cc(OCc3ccccc3)c(OCc3ccccc3)cc2C1Cc1ccc(N)c(I)c1` (stereo unspecified), the melting point is reported as 169 to 171 °C.
`CCC(C)SC1=C(C#N)C(c2ccccc2)(c2ccccc2)C(=O)N1` (stereo unspecified) gave a melting point of 155 to 156 °C.
In the case of `O=C(O)CCCC(=O)NCCCCCC1CCSS1` (stereo unspecified), the melting point is reported as 60 to 62 °C.
For `C=CCN1CCN2c3ccccc3Cn3cccc3C2C1` (stereo unspecified), the melting point was 130 to 132 °C.
Molecule `COc1c2occc2c(OC)c2c(=O)cc(N3CCC(C4CCN(c5cc(=O)c6c(OC)c7ccoc7c(OC)c6o5)CC4)CC3)oc12` has a melting point of 126 to 129 °C.
Work on `CC(C)(Nc1ccc(Cl)cc1[N+](=O)[O-])C(=O)O` yielded a melting point of 162 to 164 °C.
In the case of `O=C(O)CC(O)c1cccc(Cl)c1` (stereo unspecified), the melting point is reported as 94.5 to 95.5 °C.
Molecule `CC(C)CC(NC(=O)Cc1cccc2ccccc12)C(=O)NC(Cc1ccccc1)C(=O)CSCc1ccco1` (stereo unspecified) has a melting point of 143 to 146 °C.
